ChEMBL document CHEMBL1201862, “PubChem BioAssay data set” (2004)
Each block holds one molecule with its values, some of them ahead of it. Calls of active or inactive are those of the source.

Key:
[1] = biological target: T1, Sentrin-specific protease 7 (Homo sapiens, UniProt Q9BQF6); assay: inhibition of human SENP7 cleavage activity – biochemical, luminescence, SAR follow-up (AID 504497); format: functional
T1 sequence (Q9BQF6 whole entry): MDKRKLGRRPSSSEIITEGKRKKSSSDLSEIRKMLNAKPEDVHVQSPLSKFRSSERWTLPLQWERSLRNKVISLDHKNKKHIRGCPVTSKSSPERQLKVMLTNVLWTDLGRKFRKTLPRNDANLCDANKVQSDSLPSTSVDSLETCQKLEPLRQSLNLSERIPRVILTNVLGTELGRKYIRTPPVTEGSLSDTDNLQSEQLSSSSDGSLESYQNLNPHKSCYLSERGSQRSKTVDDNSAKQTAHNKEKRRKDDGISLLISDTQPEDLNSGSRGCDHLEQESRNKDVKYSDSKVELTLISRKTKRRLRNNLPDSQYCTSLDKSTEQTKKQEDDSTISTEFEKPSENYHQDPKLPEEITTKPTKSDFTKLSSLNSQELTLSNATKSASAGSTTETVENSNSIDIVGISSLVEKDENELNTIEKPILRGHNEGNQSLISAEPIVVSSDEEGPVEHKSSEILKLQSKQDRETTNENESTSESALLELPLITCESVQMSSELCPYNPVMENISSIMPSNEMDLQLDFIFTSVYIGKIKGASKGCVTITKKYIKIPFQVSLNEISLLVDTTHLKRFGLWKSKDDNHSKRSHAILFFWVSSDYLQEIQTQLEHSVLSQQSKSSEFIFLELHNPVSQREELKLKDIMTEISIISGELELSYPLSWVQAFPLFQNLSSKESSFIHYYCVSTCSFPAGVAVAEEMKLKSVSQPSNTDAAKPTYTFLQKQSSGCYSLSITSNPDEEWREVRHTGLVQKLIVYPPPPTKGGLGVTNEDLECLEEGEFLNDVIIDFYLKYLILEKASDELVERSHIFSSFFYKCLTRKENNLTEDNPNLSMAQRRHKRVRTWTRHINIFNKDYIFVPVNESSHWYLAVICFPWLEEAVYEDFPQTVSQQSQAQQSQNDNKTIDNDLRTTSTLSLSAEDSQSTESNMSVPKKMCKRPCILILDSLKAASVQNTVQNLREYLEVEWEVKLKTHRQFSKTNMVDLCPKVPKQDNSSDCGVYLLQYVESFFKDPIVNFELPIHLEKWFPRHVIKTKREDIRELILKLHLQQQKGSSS

Caspase-3 = biological target: T2, Caspase-3 (Homo sapiens, UniProt P42574); assay: SAR Analysis of small molecule inhibitors of Sentrin-specific proteases (SENPs) using a Caspase-3 Selectivity assay. [Related pubchem assays (depositor defined):AID2540, AID2599, AID434973, AID489001]; format: functional
T2 sequence (P42574 whole entry): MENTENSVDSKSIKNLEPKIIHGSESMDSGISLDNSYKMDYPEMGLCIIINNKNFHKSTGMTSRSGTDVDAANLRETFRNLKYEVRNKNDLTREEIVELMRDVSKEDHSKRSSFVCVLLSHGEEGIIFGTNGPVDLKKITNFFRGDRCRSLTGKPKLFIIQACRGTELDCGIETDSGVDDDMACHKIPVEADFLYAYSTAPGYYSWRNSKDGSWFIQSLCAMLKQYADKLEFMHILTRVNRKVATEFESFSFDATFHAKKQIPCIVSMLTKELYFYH

[2] = biological target: T3, Sentrin-specific protease 6 (Homo sapiens, UniProt Q9GZR1); assay: SAR Analysis of small molecule inhibitors of Sentrin-specific protease 6 (SENP6) using a Luminescent assay. [Related pubchem assays (depositor defined):AID2582, AID2599]; format: functional
T3 sequence (Q9GZR1 whole entry): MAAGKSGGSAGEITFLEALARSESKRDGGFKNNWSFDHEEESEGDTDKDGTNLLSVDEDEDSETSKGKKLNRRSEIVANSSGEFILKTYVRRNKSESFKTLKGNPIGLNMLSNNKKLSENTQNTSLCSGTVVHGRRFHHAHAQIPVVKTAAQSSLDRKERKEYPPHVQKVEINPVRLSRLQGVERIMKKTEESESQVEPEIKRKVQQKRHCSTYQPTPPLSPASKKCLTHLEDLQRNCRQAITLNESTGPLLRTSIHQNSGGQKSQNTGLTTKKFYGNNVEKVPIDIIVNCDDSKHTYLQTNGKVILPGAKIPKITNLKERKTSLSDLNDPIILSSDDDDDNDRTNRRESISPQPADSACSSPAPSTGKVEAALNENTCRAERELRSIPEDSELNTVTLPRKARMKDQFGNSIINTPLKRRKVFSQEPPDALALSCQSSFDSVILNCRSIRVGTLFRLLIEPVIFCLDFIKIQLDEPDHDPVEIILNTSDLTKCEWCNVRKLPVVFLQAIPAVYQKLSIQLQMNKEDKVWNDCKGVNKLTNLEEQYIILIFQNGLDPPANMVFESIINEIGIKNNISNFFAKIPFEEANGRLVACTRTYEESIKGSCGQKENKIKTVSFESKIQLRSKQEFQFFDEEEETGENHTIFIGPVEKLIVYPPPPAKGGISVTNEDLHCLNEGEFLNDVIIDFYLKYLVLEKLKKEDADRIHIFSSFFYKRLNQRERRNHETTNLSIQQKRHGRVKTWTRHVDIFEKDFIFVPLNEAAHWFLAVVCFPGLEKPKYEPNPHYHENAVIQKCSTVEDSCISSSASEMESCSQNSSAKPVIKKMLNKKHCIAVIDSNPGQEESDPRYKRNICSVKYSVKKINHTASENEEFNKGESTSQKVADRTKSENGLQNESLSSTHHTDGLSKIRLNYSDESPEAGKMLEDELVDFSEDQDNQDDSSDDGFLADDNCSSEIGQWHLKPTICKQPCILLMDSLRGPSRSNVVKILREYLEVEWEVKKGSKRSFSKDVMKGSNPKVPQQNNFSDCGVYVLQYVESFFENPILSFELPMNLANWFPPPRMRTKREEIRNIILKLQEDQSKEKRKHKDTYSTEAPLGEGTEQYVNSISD

[3] = biological target: T4, Sentrin-specific protease 8 (Homo sapiens, UniProt Q96LD8); assay: inhibition of human SENP8 cleavage activity – biochemical, luminescence, SAR follow-up (AID 504501); format: functional
T4 sequence (Q96LD8 whole entry): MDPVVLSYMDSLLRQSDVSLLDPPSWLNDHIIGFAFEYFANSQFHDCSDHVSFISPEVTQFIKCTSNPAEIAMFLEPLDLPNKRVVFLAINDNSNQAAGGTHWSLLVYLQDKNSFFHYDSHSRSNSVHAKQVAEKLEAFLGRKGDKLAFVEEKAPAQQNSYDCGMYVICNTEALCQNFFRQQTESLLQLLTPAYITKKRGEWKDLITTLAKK

[4] = biological target: Beta-2 adrenergic receptor (Homo sapiens, UniProt P07550); assay: ADRB2 activation measured by internalization – cell-based, FAP fluorogen, flow cytometry, cherry pick 1, dose response (AID 588763); format: functional
[5] = biological target: T5, High affinity choline transporter 1 (Homo sapiens, UniProt Q9GZV3); assay: human choline transporter blockers, potency – cell-based, 5-point CRC, membrane potential dye, dose response (AID 504840); format: functional
T5 sequence (Q9GZV3 whole entry): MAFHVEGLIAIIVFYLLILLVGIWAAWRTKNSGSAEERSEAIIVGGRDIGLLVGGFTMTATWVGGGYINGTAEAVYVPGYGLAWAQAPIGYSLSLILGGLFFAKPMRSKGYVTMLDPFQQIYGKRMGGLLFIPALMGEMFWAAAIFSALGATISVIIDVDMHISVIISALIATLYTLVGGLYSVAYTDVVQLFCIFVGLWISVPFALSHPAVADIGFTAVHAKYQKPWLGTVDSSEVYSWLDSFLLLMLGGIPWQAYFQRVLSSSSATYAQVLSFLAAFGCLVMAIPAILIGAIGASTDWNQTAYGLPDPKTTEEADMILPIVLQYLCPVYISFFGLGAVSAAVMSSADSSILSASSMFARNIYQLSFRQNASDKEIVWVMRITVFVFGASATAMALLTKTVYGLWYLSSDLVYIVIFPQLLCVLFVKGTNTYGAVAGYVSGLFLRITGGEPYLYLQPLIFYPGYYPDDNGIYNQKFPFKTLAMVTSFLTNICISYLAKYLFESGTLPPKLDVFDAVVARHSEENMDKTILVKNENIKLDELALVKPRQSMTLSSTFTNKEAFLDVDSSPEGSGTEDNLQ

[6] = biological target: T6, Corticotropin-releasing factor receptor 2/Corticotropin-releasing factor-binding protein (Homo sapiens, UniProt P24387+Q13324); assay: activators of CRF receptor 2 with binding protein – uHTS hits, confirmation (AID 602473); format: functional; settings: read-out: EC50_Mean
T6 sequence (Q13324 whole entry): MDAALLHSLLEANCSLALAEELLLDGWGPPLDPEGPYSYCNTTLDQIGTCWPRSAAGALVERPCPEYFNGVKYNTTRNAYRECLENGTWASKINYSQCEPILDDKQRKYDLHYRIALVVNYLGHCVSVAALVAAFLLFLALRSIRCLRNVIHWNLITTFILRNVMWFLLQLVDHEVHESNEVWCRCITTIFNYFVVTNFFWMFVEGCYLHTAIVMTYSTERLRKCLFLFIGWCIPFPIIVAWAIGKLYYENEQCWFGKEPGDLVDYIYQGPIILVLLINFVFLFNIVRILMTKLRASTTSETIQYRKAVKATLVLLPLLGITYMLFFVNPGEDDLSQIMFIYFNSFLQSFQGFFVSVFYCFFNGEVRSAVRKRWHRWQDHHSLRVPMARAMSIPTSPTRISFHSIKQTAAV
T6 sequence (P24387 whole entry): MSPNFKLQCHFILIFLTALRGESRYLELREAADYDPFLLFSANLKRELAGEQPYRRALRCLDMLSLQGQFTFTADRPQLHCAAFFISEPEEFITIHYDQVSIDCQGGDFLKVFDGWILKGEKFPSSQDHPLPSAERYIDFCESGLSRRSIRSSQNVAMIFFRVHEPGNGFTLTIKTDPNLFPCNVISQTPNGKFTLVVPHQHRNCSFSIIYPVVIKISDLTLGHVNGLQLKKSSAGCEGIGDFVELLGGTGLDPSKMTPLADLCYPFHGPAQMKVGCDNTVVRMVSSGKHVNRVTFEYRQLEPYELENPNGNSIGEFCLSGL

Vero = assay: viability of Vero cells under compound – cytotoxicity control for flavivirus capping enzyme inhibitors (AID 588742); format: functional; settings: Chlorocebus sabaeus
Genome polyprotein = Genome polyprotein (dengue virus type 2, UniProt P29990); assay: flavivirus cap methylation enzyme inhibition – biochemical, confirmation dose response, primary screen (AID 588689); format: functional
Cytochrome P450 1A2 = biological target: T7, Cytochrome P450 1A2 (Homo sapiens, UniProt P05177);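 also: PubChem cytochrome P450 panel assay, CYP1A2 panel member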
T7 sequence (P05177 whole entry): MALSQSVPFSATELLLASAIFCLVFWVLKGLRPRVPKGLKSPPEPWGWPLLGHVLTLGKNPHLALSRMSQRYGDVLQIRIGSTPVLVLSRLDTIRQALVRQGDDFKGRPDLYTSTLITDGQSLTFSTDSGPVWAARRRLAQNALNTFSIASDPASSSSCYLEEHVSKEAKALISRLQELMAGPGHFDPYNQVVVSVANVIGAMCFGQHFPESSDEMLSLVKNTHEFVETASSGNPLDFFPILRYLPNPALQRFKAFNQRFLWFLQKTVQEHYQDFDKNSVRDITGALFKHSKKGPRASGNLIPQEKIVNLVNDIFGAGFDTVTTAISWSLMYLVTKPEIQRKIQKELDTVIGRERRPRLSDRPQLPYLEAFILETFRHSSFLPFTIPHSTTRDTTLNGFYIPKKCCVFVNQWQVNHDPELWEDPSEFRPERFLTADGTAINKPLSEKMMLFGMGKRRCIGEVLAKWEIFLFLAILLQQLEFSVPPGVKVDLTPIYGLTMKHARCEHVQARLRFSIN

[7] = biological target: T8, Carboxy-terminal domain RNA polymerase II polypeptide A small phosphatase 1 (Homo sapiens, UniProt Q9GZU7); assay: CTDSP1 inhibitors, concentration-response, biochemical, absorbance readout, ultra-high-throughput screen actives (AID 540297); format: functional
T8 sequence (Q9GZU7 whole entry): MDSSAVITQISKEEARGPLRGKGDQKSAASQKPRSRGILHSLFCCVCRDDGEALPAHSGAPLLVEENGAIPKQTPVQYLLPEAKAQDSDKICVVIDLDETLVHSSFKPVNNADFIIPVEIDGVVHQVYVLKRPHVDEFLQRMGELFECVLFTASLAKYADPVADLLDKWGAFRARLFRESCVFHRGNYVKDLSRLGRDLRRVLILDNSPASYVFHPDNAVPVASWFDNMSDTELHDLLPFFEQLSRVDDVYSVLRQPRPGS

[8] = tested on: Streptococcus sp. 'group A'; assay: Streptococcus pyogenes SK(-)GAS viability under kanamycin – luminescence, BacTiterGlo, confirmation, counter-screen for streptokinase expression inhibitor project, dose response (AID 1900); format: functional, organism-based
Streptococcus = assay: GAS UMAA2166 growth inhibition – luminescence, BacTiterGlo, counter-screen for streptokinase expression inhibitor project, dose response (AID 1915); format: functional, organism-based;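 also: potency for reduction of bacterial viability or growth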

Sequence of Beta-2 adrenergic receptor (P07550 whole entry): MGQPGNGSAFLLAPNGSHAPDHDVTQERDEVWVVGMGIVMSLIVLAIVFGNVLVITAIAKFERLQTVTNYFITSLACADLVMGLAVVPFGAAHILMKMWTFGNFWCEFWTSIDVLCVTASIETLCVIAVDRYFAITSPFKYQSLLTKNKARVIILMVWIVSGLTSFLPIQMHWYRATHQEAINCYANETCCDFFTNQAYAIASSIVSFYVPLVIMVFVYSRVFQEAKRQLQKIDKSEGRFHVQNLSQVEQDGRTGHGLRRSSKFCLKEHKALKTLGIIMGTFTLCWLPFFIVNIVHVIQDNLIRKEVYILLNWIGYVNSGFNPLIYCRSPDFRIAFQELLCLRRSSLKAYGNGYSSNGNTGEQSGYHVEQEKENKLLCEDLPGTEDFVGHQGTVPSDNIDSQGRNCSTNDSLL
Sequence of Genome polyprotein (P29990 2492-3391 limits assumed): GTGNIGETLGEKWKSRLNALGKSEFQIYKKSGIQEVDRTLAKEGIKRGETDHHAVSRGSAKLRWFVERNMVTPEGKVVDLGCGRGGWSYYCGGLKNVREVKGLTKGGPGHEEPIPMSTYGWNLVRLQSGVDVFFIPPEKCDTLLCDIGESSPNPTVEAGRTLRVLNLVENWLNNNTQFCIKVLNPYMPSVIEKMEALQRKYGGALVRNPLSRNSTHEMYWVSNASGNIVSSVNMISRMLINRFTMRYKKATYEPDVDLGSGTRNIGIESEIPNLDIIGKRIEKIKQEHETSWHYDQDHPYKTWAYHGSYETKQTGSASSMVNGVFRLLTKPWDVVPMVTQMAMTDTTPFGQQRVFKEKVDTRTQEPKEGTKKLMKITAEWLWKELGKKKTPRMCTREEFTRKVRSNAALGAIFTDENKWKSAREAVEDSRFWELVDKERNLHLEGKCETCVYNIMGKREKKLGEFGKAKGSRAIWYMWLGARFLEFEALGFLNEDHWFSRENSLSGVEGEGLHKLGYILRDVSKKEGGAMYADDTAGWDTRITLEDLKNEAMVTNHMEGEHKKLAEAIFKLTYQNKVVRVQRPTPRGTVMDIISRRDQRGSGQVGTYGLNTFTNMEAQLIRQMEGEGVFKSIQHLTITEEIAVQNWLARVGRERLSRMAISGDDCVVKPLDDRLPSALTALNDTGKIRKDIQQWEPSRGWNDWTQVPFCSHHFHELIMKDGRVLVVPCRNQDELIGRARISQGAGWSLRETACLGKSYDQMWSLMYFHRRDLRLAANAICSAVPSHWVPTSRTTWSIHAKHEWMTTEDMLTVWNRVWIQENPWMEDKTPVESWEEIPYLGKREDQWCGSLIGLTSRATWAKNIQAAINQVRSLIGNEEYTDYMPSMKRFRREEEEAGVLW

IC50 [1]: > 99 µM (inactive)
IC50 (Caspase-3): > 99 µM (inactive)
IC50 [2]: > 99 µM (inactive)
SMILES: CN(C)S(=O)(=O)c1ccc2nc(NC(=O)c3sc4ccccc4c3Cl)sc2c1
IC50 [3]: > 99 µM (inactive)

EC50 [4]: 3.3 µM (active)
SMILES: CC(C)=CCC(C)(C)C1OCCN1C(=O)c1ccccc1 (stereo unspecified)

IC50 [5]: 13.2 µM (active)
EC50 [6]: 1.83 µM (active)
IC50 (Genome polyprotein): 67.9 µM (active)
SMILES: O=C(Nc1cc(S(=O)(=O)N2CCCCC2)ccc1O)c1ccccc1NS(=O)(=O)c1ccc(F)cc1
CC50 (Vero): > 40 µM (active)

IC50 [1]: > 99 µM (inactive)
IC50 (Caspase-3): > 99 µM (inactive)
IC50 [2]: 64.6 µM (active)
SMILES: C(=N/Nc1cc(N2CCCCCC2)nc(N2CCCCCC2)n1)/c1ccccc1
IC50 [3]: > 99 µM (inactive)

AC50 (Cytochrome P450 1A2): 25.1 µM (inconclusive)
EC50 [4]: 7.22 µM (inactive)
IC50 [7]: 7.21 µM (active)
SMILES: O=C(Nc1cccc(-c2nc3ncccc3o2)c1)c1sc2cc(Cl)ccc2c1Cl

EC50 [4]: 2.59 µM (active)
SMILES: O=C(c1ccc(OC2CCN(Cc3ccc(C(F)(F)F)cc3)CC2)cc1)N1CCCCC1

SMILES: O=C(O)CN1C(=O)/C(=C\c2cc(Br)ccc2OCc2ccc(Cl)cc2Cl)SC1=S
EC50 [8]: 1.36 µM (active)
EC50 (Streptococcus): 1.95 µM (active)
CC50 (Vero): > 40 µM (active)
IC50 (Genome polyprotein): 28.8 µM (active)
